System: NCI-H226 (BAP1mut, CDKN2Adel, FGFR high) xenograft
Experiment: NCI-H226 xenograft model (Examples 18-19)
Assay type: in vivo, mice
Conditions: Compound 73 50 mg/kg, orally, once per day, 35 days
Method: A subcutaneous xenograft tumor model of human tumor immunodeficient mice was established by cell inoculation: tumor cells in logarithmic growth phase were collected, counted, resuspended in 1×PBS, and the cell suspension concentration was adjusted to 2.5-5×10^7/mL. The tumor cells were inoculated subcutaneously in the right side of immunodeficient mice with a 1 ml syringe ([…]), 5-10×10^6/0.2 mL/mouse. All animal experiments were strictly in accordance with the specifications for the use and management of experimental animals in GenePharma Co., Ltd. and Suzhou Ascentage Pharma Co., Ltd. The calculation of relevant parameters refers to the Chinese NMPA “Guidelines for Non-Clinical Research Techniques of Cytotoxic Anti-tumor Drugs”.
Animal body weight and tumor size were measured twice weekly during the experiment. The state of the animal and the presence or absence of death were observed every day. The growth of tumor and the effects of treatment on normal behavior of animals were monitored routinely, specifically involving experimental animal activity, feeding and drinking, weight gain or loss, eyes, clothing hair and other abnormalities. The deaths and clinical symptoms observed during the experiment were recorded in the raw data. […] The plasma and tumor samples were frozen at −80° C. for ready-to-use.
Tumor volume (TV) is calculated as: TV=a×b^2/2, wherein a and b represent the length and width of the tumor to be measured, respectively.
The relative tumor volume (RTV) is calculated as: RTV=Vt/V1, wherein V1 is the tumor volume at the start of grouping and administration, and Vt is the tumor volume measured on the t day after administration. […]
Use of mRECIST (Gao et al., 2015) measured tumor responses included stable disease (SD), partial tumor regression (PR), and complete regression (CR), determined by comparing tumor volume change at day t to its baseline: tumor volume change (%)=(Vt−V1)/V1. […] For each time t, the average of tumor volume changes from t=1 to t was also calculated. […] Body weight of animals were monitored simultaneously. […]

CC(C)N1Cc2cc(C(F)(F)F)ncc2-c2cnc(NCc3c(F)ccc4c3CCO4)n3cnc(c23)C1=O [Compound 73, 12-(((5-fluoro-2,3-dihydrobenzofuran-4-yl)methyl)amino)-4-isopropyl-7-(trifluoromethyl)-4,5-dihydro-3H-2,4,8,11,12a-pentaazabenzo[4,5]cycloocta[1,2,3-cd]inden-3-one]
T/C (%): 48.6%
tumor response (mRECIST): all the mice achieving stable disease (SD)
